Measurements: publication PMC6880192, “Structure–Effect Relationships of Novel Semi-Synthetic Cannabinoid Derivatives” (Frontiers in Pharmacology, 2019)

What was measured:
[1] = tested on: CB1-/CB2-receptors; set-up: method as in Rosenthaler et al. 2014; settings: ref Rosenthaler et al. 2014; cited from earlier work
[2] = tested on: RAW264.7 macrophages; experiment: MTT cytotoxicity assay; type: cell-based; settings: RAW264.7, concentrations of 5 and 10 µmol/L
From the text: Cytotoxicity tests were done on CHO cells, Jurkat T-cells, or RAW264.7 macrophages using the MTT assay (Sigma-Aldrich, St. Louis) and on primary human monocytes with the alamarBlue assay (Thermo Fisher Scientific, Karlsruhe).

[3] = molecular target: T1, CB2-receptor (Homo sapiens, UniProt P34972); experiment: Competition binding against [3H]-CP55940, CB2 membranes; settings: ratio of Ki values
T1 construct: expressed in transfected cells; host or cells: CHO cells, stably transfected with CB2 cDNA (from IMIBIC) and transiently with CRE-luc

[4] = molecular target: T1, CB2-receptor; experiment: cAMP-dependent luciferase assay in CHO-CB2-CRE-luc cells; type: cell-based
Protocol: (§1) Briefly, CHO cells were stably transfected with CB1- and CB2-receptor complementary DNAs (cDNAs) (kindly provided by IMIBIC). Around 10^5 transfected cells per milliliter were seeded in 24-well plates and transiently transfected with the plasmid CRE-luc using Roti-Fect (Carl Roth, Karlsruhe) following the manufacturer’s instructions. The cells were harvested after 24 h. Two transfected cell types resulted: CHO-CB1-CRE-luc and CHO-CB2-CRE-luc.
(§2) To test for agonistic activity at the CB1-receptor, the CHO-CB1-CRE-luc cells were stimulated for 6 h with increasing concentrations of the test compounds ([Bouaboula et al. 1997]). Forskolin (FSK), a strong CB-receptor-independent activator of adenylyl-cyclase was used at 10 µmol/L as a positive control. To investigate the antagonistic activity, the CHO-CB1-CRE-luc cells were pre-incubated for 15 min with the test compounds before stimulation for 6 h with 1 µmol/L WIN ([Zheng et al. 2013]). To investigate CB2-receptor agonistic activity, CHO-CB2-CRE-luc cells were pre-incubated for 15 min with increasing concentrations of the test substances and then for 6 h with 10 µmol/L FSK. WIN, a non-specific agonist at CB2-receptors, was used as a positive control. To confirm CB2-receptor agonistic activities of the test compounds, CHO-CB2-CRE-luc cells were pre-incubated with the specific CB2-receptor antagonist AM630 (1 µmol/L, 6-iodopravadoline; Cayman, distributed by Biozol, Hamburg) ([Ross et al. 1999]; [Zheng et al. 2013]) and then treated with increasing concentrations of the test substances.
(§3) After the stimulations and incubations, cells were lysed in a solution of 25 mmol Tris-phosphate (pH = 7.8), 8 mmol MgCl2, 1 mmol dithiothreitol (DTT), 1% Triton X-100, and 7% glycerol. The luciferase activity was measured with a Luciferase Assay Kit (Promega, Madison) according to the manufacturer’s instructions using an AutoLumat LB 9501 (Berthold Technologies, Bad Wildbad).

[5] = molecular target: T2, CB1-receptor (Homo sapiens, UniProt P21554); experiment: cAMP-dependent luciferase assay in CHO-CB1-CRE-luc cells; type: cell-based; settings: CHO-CB1-CRE-luc, summary classification
T2 construct: expressed in transfected cells; host or cells: CHO cells, stably transfected with CB1 cDNA (from IMIBIC) and transiently with CRE-luc
Protocol: as §1, §2, §3

[6] = tested on: NFAT; experiment: PMA/IO-induced NFAT-luc activation in Jurkat T-cells; type: cell-based; settings: 0.5–25 µmol/L
Protocol: Jurkat T-cells (10^6 cells per milliliter) were transiently transfected with plasmids that contained an NF-κB-dependent (KBF-luc) or NFAT-dependent (NFAT-luc) promotors fused to the luciferase gene using Lipofectin (Life Technologies, Carlsbad) according to the manufacturer’s instructions ([Yano et al. 1987]; [Durand et al. 1988]). Twenty-four hours after transfection, cells were stimulated for 30 min with increasing doses of the test compounds or WIN as a control (Tocris, Bristol). Then PMA (50 ng/ml)—for NFAT-luc—plus ionomycin (0.5 µg/ml) (Sigma-Aldrich, St. Louis) was added, followed by a 6 h incubation period.
as §3

[7] = tested on: primary human monocytes; experiment: Anti-inflammatory effect on LPS-treated monocytes (ELISA); type: cell-based; settings: LPS 10 ng/ml, 24 h
Protocol: Human peripheral blood monocytes were prepared from healthy donors who provided written informed consent at the local blood bank (University Hospital of Freiburg, Germany). Mononuclear cells were isolated by density gradient centrifugation according to standard protocol ([English and Andersen, 1974]) using lymphocyte separation medium, (PAN Biotech, Aidenbach). Cells were resuspended in RPMI-1640 medium (Invitrogen/Thermo Fisher Scientific, Karlsruhe) containing 10% human serum (Hexacell, Berlin). About 5 × 10^5 cells per milliliter were seeded in 24-well plates and incubated at 37°C and 5% CO2. The medium and the non-adherent cells were removed by washing with PBS and fresh RPMI medium, and 1% human serum was added to each well.
To test the anti-inflammatory effect of the test compounds, monocytes were incubated for 30 min with increasing doses of the test compounds. Then lipopolysaccharide (LPS) (10 ng/ml; Escherichia coli, Sigma-Aldrich, St. Louis) was added followed by a 24 h incubation period. The supernatants were removed and the levels of IL-1β, IL-6, IL-8, TNF-α, and prostaglandin E2 (PGE2) determined by enzyme-linked immunosorbent assay (ELISA) performed according to the manufacturer’s instructions (IL-1β from Hiss, Freiburg; IL-6, IL-8, and TNF-α from ImmunoTools, Friesoythe; and PGE2 from Cayman, distributed by Biozol, Hamburg). Stimulation with LPS alone was considered 100%.

T1 sequence (P34972 whole entry): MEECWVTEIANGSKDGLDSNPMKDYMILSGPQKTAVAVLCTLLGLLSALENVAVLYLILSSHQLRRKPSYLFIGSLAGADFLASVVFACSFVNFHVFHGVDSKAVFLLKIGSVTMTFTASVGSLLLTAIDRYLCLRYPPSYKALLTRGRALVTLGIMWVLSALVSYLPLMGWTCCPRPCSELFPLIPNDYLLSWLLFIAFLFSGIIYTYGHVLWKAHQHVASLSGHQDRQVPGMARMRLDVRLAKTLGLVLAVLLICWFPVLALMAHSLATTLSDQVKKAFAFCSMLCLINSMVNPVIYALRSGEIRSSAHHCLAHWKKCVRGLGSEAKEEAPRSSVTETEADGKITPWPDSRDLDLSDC
T2 sequence (P21554 whole entry): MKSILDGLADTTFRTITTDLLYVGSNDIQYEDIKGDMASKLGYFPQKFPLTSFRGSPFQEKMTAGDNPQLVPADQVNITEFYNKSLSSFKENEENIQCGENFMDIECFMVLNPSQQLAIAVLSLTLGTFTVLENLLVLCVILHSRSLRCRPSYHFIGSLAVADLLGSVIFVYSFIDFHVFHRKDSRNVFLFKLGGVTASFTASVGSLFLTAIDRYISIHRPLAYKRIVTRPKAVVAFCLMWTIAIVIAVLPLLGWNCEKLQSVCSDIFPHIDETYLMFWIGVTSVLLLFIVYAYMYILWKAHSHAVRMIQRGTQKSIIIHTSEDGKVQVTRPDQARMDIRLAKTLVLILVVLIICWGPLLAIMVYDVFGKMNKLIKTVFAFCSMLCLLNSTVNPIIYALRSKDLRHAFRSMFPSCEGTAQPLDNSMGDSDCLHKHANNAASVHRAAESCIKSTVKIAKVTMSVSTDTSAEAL

Structure (SMILES): C=C(C)[C@@H]1CCC(C)=C[C@H]1c1c(O)cc(CCCCC)cc1O [CBD, (-)-trans-cannabidiol]
- Affinity for CB1-/CB2-receptors [1]: poor affinity

Structure (SMILES): C=C(C)[C@@H]1CCC(C)=C[C@H]1c1c(O)cc(CCC)cc1O [CBDV, (-)-trans-cannabidivarin]
- Affinity for CB1-/CB2-receptors [1]: poor affinity

Structure (SMILES): C=C(C)[C@@H]1CCC(C)=C[C@H]1c1c(O)cc(CCCCC)c(C(=O)OCC(O)CO)c1O (stereo partly drawn) [GCBD (3), 2,3-dihydroxypropyl cannabidiolate]
- Effect on cell viability [2]: negative effect on cell viability
- Selectivity CB2/CB1 [3]: 7.8
- CB2-receptor agonistic activity (fold induction of CRE-luc) ([4]; 15 min pre-incubation, then 10 µmol/L FSK for 6 h): dose-dependent agonistic effects
- Effect on CB2 ([4]; CHO-CB2-CRE-luc, summary classification): Agonist
- Effect on CB1 [5]: Antagonist
- Inhibition of PMA/IO-induced NFAT activation [6]: significantly inhibited
- LPS-induced IL-1β release [7]: significantly inhibited
- LPS-induced IL-6 release [7]: significantly inhibited
- LPS-induced IL-8 release [7]: costimulated
- LPS-induced TNF-α release [7]: significantly inhibited
